US20260139017A1, “COMPOSITIONS AND METHODS USING REELIN IN ALZHEIMER'S DISEASE” (The General Hospital Corporation, priority 2022, published 2026)
“Also recorded” adds a separate entry of the source.

Assays:
pDAB1 (Tyr232) = assay: HRECs treated 5 minutes with HEK 293T-derived mini-RELN media, pDAB1 western blot; assay type: cell-based, human; conditions: HEK 293T-derived media 1:1, 1:4, 1:14, 5 minutes
Method: The effect of in vitro treatment with RELN or miniRELN protein was also evaluated. HRECs were cultured in EBM-2 media enriched with EGM-2 Single Quots (Lonza) at 37° C. and 5% CO2 and experimentally tested at passage 7. 24 h prior experiment, cells were plated on a 6-well plate at 500,000 cells/mL. Two hours before the experiment, the cells were washed with PBS to remove residual growth media and then incubated with a starving media including EBM-2, 1% GlutaMax+0,2% Normicin. Treatments was conducted using media derived from HEK 293T cells transiently transfected for 24 h with different mini-RELN constructs in the presence of Lipofectamine 2000. […] Total protein levels were quantified via BCA assay. […] We detected pDAB1 (Tyr232; 1:1000, rabbit, #3325 Cell signaling), and Beta actin (1:5000, mouse, #66009-1-Ig, Proteintech. Antibodies were diluted using Intercept® (TBS) Blocking Buffer and incubated overnight at 4C under gentle shaking. Prior secondary antibody incubation, membranes were washes 2 times using TBS-T for 10 minutes. As secondary antibodies we used IR Dye 800n CW Goat-anti-Rabbit (925-32211, Licor) and IR Dye 680 CW Goat-anti-Mouse (925-68070, Licor) both diluted 1:10000 in blocking buffer for 1 h at room temperature under gentle shaking. Membranes were washed three times with TBS-T prior IR detection using Odyssey imager. […]

[1] = test system: human retinal endothelial cells; assay: GFP mRNA cargo uptake with CTR peptide in retinal endothelial cells; assay type: cell-based; conditions: 5 μg mRNA mixed with peptide, 24 hours
Method: To evaluate this, HMRECs were cultured in a 24 well plate until 80% confluency complete endothelial growth media 2 (EGM-2, Lonza, Switzerland). For the treatments, 5 μg of mRNA were added to all the formulations. We prepared mRNA/peptide conjugates by mixing each amount of peptide ([…]) (SEQ ID NO:59) and mRNA prior to dilution in EGM-2. HMRECs were cultured with treatment media for 24 hours followed by fluorescence measurements in a microplate reader Synergy H1 (Biotek, VT) upon exciting at 482 nm and recording emission at 520 nm.

[2] = Heparin-sepharose affinity column chromatography, NaCl step gradient; assay type: binding
Method: We tested changes in binding to heparin of RELN variants chromatographically using an optimized version of a protocol previously published by our laboratory (1). Briefly, after equilibration of the heparin column (BioVision 6554-1) at R.T., columns were washed with five volumes of degassed 20 mM TRIS-HCl buffer (pH 7.5). Recombinant C-terminus RELN peptides were produced and purified by Innovagen (Sweden): (WT) […](SEQ ID NO:56), and (H3447R) […](SEQ ID NO:53). One mL of 50 μg/mL peptide (H3447 or WT, and H3447R) was recycled through the column five times and the last flow through collected for further analysis. The column was washed five times with the same buffer and the protein eluted using a 0.05 M step gradient of NaCl in 20 mM Tris-HCl (0-1M, one mL per fraction). To ensure the complete release of the protein, the column was washed with five M NaCl 20 mM Tris-HCl. Three independent experiments were conducted for C-terminus RELN WT and H3447R. All eluted fractions were analyzed spectroscopically by reading the absorbance at 280 nm using Nanodrop 2000 Spectrophotometer. Blank corrected fractions were subsequently analyzed using GraphPad Prism 8.
To assess Reelin-heparin binding affinity, Reelin variants were run on a heparin column with steps of 0.05M in a range of 0.05-1M NaCl over 20 1 mL column volumes in 20 mM Tris HCl, as described in Arboleda et. al 2019 (2). Sample fractions were eluted at an increasing NaCl step size to determine the ionic strength needed to disrupt the binding between Reelin and heparin. Therefore, the stronger the interaction, the higher concentration of salt would be needed to disrupt the bond.

VLDLr = biological target: T1, VLDLr (Homo sapiens, UniProt P98155); assay: ELISA cell-free binding of RELN variants to VLDLr
T1 construct: purchased R&D 8444-VL
Method: (§1) Enzyme-linked immunosorbent assay (ELISA) was used to quantify changes in binding of RELN variants (media-derived full-length or CTR-RELN) to either VLDLr or ApoEr2 following an optimized version of a previously published protocol (6). Briefly, ELISA strips (DY008, R&D Systems) were coated with one ng/μL (100 μL/well) of VLDLr (8444-VL, R&D) or ApoEr2 (TP320903, OnGene) receptors diluted in 25 mM Tris HCl, 140 mM NaCl, […], two mM CaCl2), pH 7.4 (TBS-C buffer). After 18 h at four ° C. incubation, plates were blocked one h with three % BSA (22070008-6, Bioworld), 0.05% Tween-20 (Sigma Aldrich) TBS-C buffer. We assessed binding via incubation with 100 μL/well of serial dilutions of recombinant RELN protein (Ser1221-Gln2666, 8546-MR-050, R&D) or RELN variants in TBS-C buffer for one hour at room temperature. For detection, we used goat anti-mouse RELN primary antibody (LS-C793521-100, LS-Bio, 1:2,000, 100 μL/well) as primary antibody for one h at R.T. and (1:10,000; 100 μL/well, donkey anti-goat IgG H&L, HRP, ab6885, Abcam) as secondary antibody for 30 min. at R.T. Between each of the previous steps, plates were washed four times with TBS-C buffer (200 μL/well). Plates were washed three times prior to initiating the colorimetric reaction (DY008, R&D Systems). Stop solution (50 μL/well, DY008, R&D Systems) was added upon five min. incubation and the absorbance of the samples was measured at 450 nm using the Synergy 2 microplate reader (BioTek Instruments). Processing and analysis of the data was done using Gen5 1.11 software and GraphPad Prism, respectively.

APOER2 = biological target: T2, APOER2 (Homo sapiens, UniProt Q14114); assay: ELISA cell-free binding of RELN variants to ApoEr2
T2 construct: purchased OnGene (so in the source)
T2 sequence (Q14114 33-963): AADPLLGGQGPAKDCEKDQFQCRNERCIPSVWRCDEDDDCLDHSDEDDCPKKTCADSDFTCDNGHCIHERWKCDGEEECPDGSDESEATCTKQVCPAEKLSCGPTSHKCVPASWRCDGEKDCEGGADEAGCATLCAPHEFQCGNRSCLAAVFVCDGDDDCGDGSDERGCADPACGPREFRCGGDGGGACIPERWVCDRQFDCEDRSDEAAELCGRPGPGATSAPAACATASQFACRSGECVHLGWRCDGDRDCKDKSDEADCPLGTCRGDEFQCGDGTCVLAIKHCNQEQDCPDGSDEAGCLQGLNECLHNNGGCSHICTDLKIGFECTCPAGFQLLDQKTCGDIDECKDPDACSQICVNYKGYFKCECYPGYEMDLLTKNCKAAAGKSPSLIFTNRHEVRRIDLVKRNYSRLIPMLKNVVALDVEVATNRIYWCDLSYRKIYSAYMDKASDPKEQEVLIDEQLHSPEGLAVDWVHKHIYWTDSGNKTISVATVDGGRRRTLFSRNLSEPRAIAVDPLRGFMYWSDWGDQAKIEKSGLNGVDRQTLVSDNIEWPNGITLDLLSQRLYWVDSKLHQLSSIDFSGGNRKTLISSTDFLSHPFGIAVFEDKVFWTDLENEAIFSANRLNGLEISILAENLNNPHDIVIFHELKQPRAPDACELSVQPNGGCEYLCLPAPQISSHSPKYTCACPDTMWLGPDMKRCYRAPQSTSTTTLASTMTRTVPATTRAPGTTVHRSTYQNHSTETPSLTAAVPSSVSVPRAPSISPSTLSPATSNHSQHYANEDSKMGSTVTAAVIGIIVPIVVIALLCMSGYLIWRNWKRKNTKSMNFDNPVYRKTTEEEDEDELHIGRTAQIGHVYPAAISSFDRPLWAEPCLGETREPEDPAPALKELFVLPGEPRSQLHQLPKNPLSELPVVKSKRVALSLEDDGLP
Method: as §1

Aβ42 = biological target: T3, Aβ42 (Homo sapiens, UniProt P05067); assay: Thioflavin T (ThT) Aβ aggregation assay; assay type: biochemical; conditions: Aβ42 55 μM, 10 μM peptide, vs Aβ alone
T3 construct: SensoLyte ThT O-Amyloid (1-42) Aggregation kit
T3 sequence (P05067 672-713 limits assumed): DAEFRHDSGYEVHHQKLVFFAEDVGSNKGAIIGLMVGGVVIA
Method: Therefore, the ThT assay can be used to quantify AB aggregation using previously developed methods (40).
We incubated CTR-RELN with Aβ and monitored aggregation using a ThioflavinT fluorescence assay normalized to the maximum ThT emission of Aβ only. We also assayed Aβ in the presence of morin, a known inhibitor (41), as a […]. Long and short WT and H3447R RELN CTR peptides were included to better understand the potential role of the H3447R mutation in amyloid pathology (FIGS. 14 and 15. Negative controls included long and short RELN CTR peptides with neutrally charged AAs (histidines) in place of basic AAs in the alpha- and beta-GAG binding sites.
A Thioflavin T (ThT) assay was also performed using synthetic Reelin peptides to assess the differential effects of these proteins on Aβ42 aggregation in vitro using Thioflavin T (SensoLyte ThT O-Amyloid (1-42) Aggregation kit, catalog no. ΔS-72214). Aβ42 was added to a final concentration of 55 μM in solutions of 10 μM of Reelin peptide variants in a transparent, no-binding 96-well plate. Samples were then mixed with 2 mM Thioflavin T dye and fluorescence was read at excitation wavelength/emission wavelength (Ex/Em)=440/484 nm at intermittent time intervals over 2 h. The plate was kept at 37° C. with 15 s shaking between reads. […] In general, it appears that the RELN Cterm domain is highly unstructured. […] If the mini-RELN includes the C-term domain only without a receptor binding domain then the protection will not involve signaling, but will still involve direct interactions with tau. If the mini-RELN includes the C-term domain and the receptor binding domain, it will have at least two protective mechanisms, namely RELN signaling and direct interactions with tau.

[3] = Isothermal titration calorimetry (ITC) of CTR-RELN with heparin; assay type: binding; conditions: titrated with 5 μM heparin, vs WT

IL2signalpeptide-6XHistag(SEQ ID NO: 62)-hReelin(AALeu1220-Ile2660) C-term-REELIN H3447R [225SU]
pDAB1 / Dab1 signaling activation (pDAB1 (Tyr232)): efficacy

RKQNYMMNFSRQHGLRHFYNRRRR [WT short]
GFP expression from mRNA cargo [1]: increase in expression

RKQNYMMNFSRQHGLRHFYNRRRRSLRRYP [CTR-RELN WT]
NaCl concentration of peak eluted fraction from heparin column ([2]; 0.05 M NaCl step gradient in 20 mM Tris HCl, UV 280 nm): 0.55 M NaCl
binding to and release from heparin column ([2]; affinity chromatography, NaCl gradient): bound to heparin
binding to VLDLr (VLDLr): unable to bind directly
binding to APOER2 (APOER2): unable to bind directly
Aβ aggregation (ThT fluorescence) (Aβ42; listed as Cterm domain of RELN): reduced amyloid aggregation
Aβ aggregation (ThT fluorescence) (Aβ42; listed as RELN CTR): decreased amyloid aggregation; also recorded: significantly reduced amyloid aggregation; also recorded: reduces Aβ aggregation

RKQNYMMNFSRQHGLRRFYNRRRR [H3447R short]
thermodynamics of heparin interaction [3]: more negative Gibbs free energy
